Assay results reported in patent publication US6114517A, “Methods of modulating tumor necrosis factor α-induced expression of cell adhesion molecules” (Isis Pharmaceuticals Inc., priority 1998, dated 2000).

What was measured:
Type in all cases: cell-based, human
Ki-ras protein = Ki-ras protein levels by Western blot in HMVEC; details: same blot stripped and blotted with Ki-ras-specific antibody
Method: (§1) For determination of protein levels by Western blot, cellular extracts were prepared using […] of RIPA extraction buffer per 100-mm dish. The protein concentration was quantified by Bradford assay using the BioRad kit (BioRad, Hercules, Calif.). Equal amounts of protein were loaded on 10% or 12% SDS-PAGE mini-gel (Novex, San Diego, Calif.). Once transferred to PVDF membranes (Millipore, Bedford, Mass.), the membranes were then treated for a minimum of 2 hours with specific primary antibody followed by incubation with secondary antibody conjugated to HRP. The results were visualized by Enhanced Chemiluminescent (ECL) detection (New England BioLab, Beverly, Mass.). In some experiments, the blots were stripped in stripping buffer (2% SDS, 12.5 mM Tris, pH 6.8) for 30 minutes at 50° C. After extensive washing, the blots were blocked and blotted with different primary antibody.
To examine the effect of ISIS 15168 (SEQ ID NO. 4) on Ha-ras protein levels, total ras protein was immunoprecipitated using a pan-ras monoclonal antibody (Oncogene Science, Cambridge, Mass.). The precipitated proteins were analyzed by SDS-PAGE, and Ha-ras protein levels were determined by western blot using a monoclonal antibody specific for Ha-ras (Oncogene Science, Cambridge, Mass.). […] The kinetics of Ha-ras reduction was slower than that of c-raf. […]

Ha-ras protein = Ha-ras protein levels, immunoprecipitation and Western blot in HMVEC; details: for Ha-ras protein expression: 48 hours following treatment
Method: as §1
To examine the effect of ISIS 15168 (SEQ ID NO. 4) on Ha-ras protein levels, total ras protein was immunoprecipitated using a pan-ras monoclonal antibody (Oncogene Science, Cambridge, Mass.). The precipitated proteins were analyzed by SDS-PAGE, and Ha-ras protein levels were determined by western blot using a monoclonal antibody specific for Ha-ras (Oncogene Science, Cambridge, Mass.). […] The kinetics of Ha-ras reduction was slower than that of c-raf. The control oligonucleotide, ISIS 17552 (SEQ ID NO. 5), had no effect on Ha-ras protein level. The same blot was stripped and blotted a second time with a Ki-ras-specific antibody (Oncogene Science, Cambridge, Mass.).

Ha-ras mRNA = Ha-ras mRNA levels by Northern blot in HMVEC
Method: Human dermal microvascular cells (HMVEC-d; Clonetics, San Diego, Calif.) were cultivated in endothelial basal media (EBM, Clonetics) supplemented with 10% fetal bovine serum (HyClone, Logan, Utah). Cells were grown in 100 mm petri dishes until 70-80% confluent, then washed with PBS and OPTI-MEM (Life Technologies, Inc., Gaithersburg, Md.). The cells were then incubated in the presence of OPTI-MEM and […] LIPOFECTIN (a 1:1 (w/w) liposome formulation of the cationic lipid N-[1-(2,3-dioleyloxy)propyl]-n,n,n-trimethylammonium chloride (DOTMA), and dioleoyl phosphotidylethanolamine (DOPE) in membrane filtered water (Life Technologies, Gaithersburg, Md.), per 100 nM of oligonucleotide followed by addition of oligonucleotide at the appropriate concentrations.
For determination of mRNA levels by Northern blot, total RNA was prepared from cells by the guanidinium isothiocyanate procedure or by the Qiagen RNAEASY method (Qiagen, Santa Clarita, Calif.) at the indicated times after initiation of oligonucleotide treatment. Northern blot analysis was performed as described in Current Protocols in Molecular Biology (Ausubel, F. M., et al., (eds), 1987, Greene Publishing Assoc. and Wiley Interscience, New York). A glyceraldehyde 3-phosphate dehydrogenase (G3PDH) probe was purchased from Clontech (Palo Alto, Calif., Catalog Number 9805-1). RNA was quantified and normalized to G3PDH mRNA levels using a Molecular Dynamic PHOSPHORIMAGER (Sunnyvale, Calif.).
ISIS 15168 (SEQ ID NO. 4) is a 2'-O-methoxyethyl mixed backbone chimeric antisense oligonucleotide designed to hybridize with sequences contained within the human Ha-ras mRNA. To determine the effect of ISIS 15168 (SEQ ID NO. 4) on Ha-ras expression in endothelial cells, HMVEC were treated, as described in Example 2, with oligonucleotide and northern blotting was used to measure Ha-ras mRNA levels. A Ha-ras probe was generated from the plasmid, pbc-N1 (American Type Culture Collection, Manassas, Va.; catalog #41001), following the supplied instructions.

p38 MAPK = assay: TNF-α-stimulated p38 MAPK activity, in vitro kinase assay on extracts of treated cells; details: 48 hours recovery, TNF-α 5 or 15 minutes
Method: (§2) To examine the effect of the c-raf antisense oligonucleotide (ISIS 12854, SEQ ID NO. 2) on ERK, JNK, and p38 MAPK activities stimulated by TNF-α, in vitro kinase assays were performed on extracts derived from cells treated with ISIS 12854 (SEQ ID NO. 2). Cells were treated with oligonucleotides and induced with cytokines. At the indicated time, cells were lysed on ice and debris was removed by centrifugation. Protein concentration was measured by Bradford assay. Lysate containing equal amounts of protein were incubated with primary antibody-agarose conjugates (ERK and p38 assay; Santa Cruz Biotechnology, Santa Cruz, Calif.), or with JNK1-specific or JNK2-specific antibodies (JNK assay; Upstate Biotechnology, Lake Placid, N.Y.), overnight at 4° C.
(§3) For isoform-specific JNK assays, anti-rabbit IgG conjugated with agarose beads was added to cell extracts following JNK antibody treatment and wash steps and incubated for 2 hours at 4° C. […]
(§4) Cells were treated with the c-raf antisense compound, ISIS 12854 (SEQ ID NO. 2), allowed to recover for 48 hours, at which time TNF-α was added for 5 or 15 minutes prior to cell lysis and initiation of the kinase assays. […] Suitable substrates and ATP were added to the immunoprecipitated kinase complexes and the reaction mixes were analyzed on SDS-PAGE. […]

JNK = assay: TNF-α-stimulated JNK activity, in vitro kinase assay on extracts of treated cells; details: 48 hours recovery, TNF-α 5 or 15 minutes
Method: as §2, §3, §4

ERK = assay: TNF-α-stimulated ERK activity, in vitro kinase assay on extracts of treated cells; details: 48 hours recovery, TNF-α 5 or 15 minutes
Method: as §2, §3, §4

A-raf protein = A-raf protein expression by Western blot in HMVEC; details: same blot stripped and blotted with antibody against A-raf
Method: as §1
Reduction of c-raf protein levels also occurred following oligonucleotide treatment. Reduction in protein expression was first detectable 24 hours after treatment and maximal reduction of c-raf protein levels was achieved 48 hours after treatment with 150 nM oligonucleotide. Reduction of c-raf protein levels persisted up to 72 hour following initial treatment.

Substance	effect on Ki-ras protein levels (Ki-ras protein)	Ha-ras protein expression (Ha-ras protein)	% mRNA Expression (Ha-ras) (Ha-ras mRNA; 1 nM) [%]	% mRNA Expression (Ha-ras) (Ha-ras mRNA; 5 nM) [%]	% mRNA Expression (Ha-ras) (Ha-ras mRNA; 25 nM) [%]	% mRNA Inhibition (Ha-ras) (Ha-ras mRNA; 25 nM) [%]	% mRNA Expression (Ha-ras) (Ha-ras mRNA; 50 nM) [%]	% mRNA Expression (Ha-ras) (Ha-ras mRNA; 100 nM) [%]	persistence of reduction of Ha-ras protein (Ha-ras protein; following initial treatment)	% mRNA Inhibition (Ha-ras) (Ha-ras mRNA; 1 nM) [%]	% mRNA Inhibition (Ha-ras) (Ha-ras mRNA; 5 nM) [%]	% mRNA Inhibition (Ha-ras) (Ha-ras mRNA; 50 nM) [%]	% mRNA Inhibition (Ha-ras) (Ha-ras mRNA; 100 nM) [%]	Activation of p38 MAPK (p38 MAPK)	JNK activity (JNK)	ERK activity (ERK)	A-raf protein expression (A-raf protein)
ToCoAsGsTsAsAsTsAsGsCsCsCoCoAoCoAoToGoG [ISIS 17552, reference compound]	No effect	no effect	103	115	96	4	109	105									
ToCoCsGsTsCsAsTsCsGsCsTsCoCoToCoAoGoGoG [ISIS 15168]	No effect	dose-dependent reduction	61	44	19	81	10	9	up to 72 hours	39	56	90	91				
ToCoCoCoGoCsCsTsGsTsGsAsCsAsToGoCoAoToT [ISIS 12854]														not affected	inhibited	reduced	largely unaffected
